In patent US12344621B2, “CGRP antagonist compounds” (Nxera Pharma UK Limited, priority 2019, dated 2025):
Where two headings read alike, the source gives them in different places. Each block holds one compound with its values, some of them ahead of it.

How the values were obtained:
[1] = amide bond
[2] = amide bond; remark: listed apart in the source
[3] = molecular target: T1, human CGRP receptor (Homo sapiens, UniProt O60894+Q16602); assay: cAMP functional assay (HTRF cAMP dynamic-2) in SK-N-MC cells; format: cell-based; details: SK-N-MC cells endogenously expressing human CGRP receptor; challenge with EC80 human CGRP (0.3 nM); functional pKb converted from pIC50 by modified Cheng-Prussoff equation
T1 construct: SK-N-MC endogenously expressing the human CGRP receptor; endogenous in cells; host or cells: SK-N-MC human neuroblastoma cells
T1 sequence (Q16602 23-461): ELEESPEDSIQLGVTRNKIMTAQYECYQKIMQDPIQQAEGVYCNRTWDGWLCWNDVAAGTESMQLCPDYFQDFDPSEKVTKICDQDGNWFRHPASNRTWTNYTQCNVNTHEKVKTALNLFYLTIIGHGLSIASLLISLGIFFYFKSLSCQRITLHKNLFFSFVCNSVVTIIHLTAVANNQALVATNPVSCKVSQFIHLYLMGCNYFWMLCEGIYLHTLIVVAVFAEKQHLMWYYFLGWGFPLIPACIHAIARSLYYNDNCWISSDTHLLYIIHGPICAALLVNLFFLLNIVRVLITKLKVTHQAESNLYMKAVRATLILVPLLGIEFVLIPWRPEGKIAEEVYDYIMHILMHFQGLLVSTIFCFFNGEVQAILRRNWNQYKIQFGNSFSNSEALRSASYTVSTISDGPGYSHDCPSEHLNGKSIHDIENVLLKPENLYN
T1 sequence (O60894 27-148): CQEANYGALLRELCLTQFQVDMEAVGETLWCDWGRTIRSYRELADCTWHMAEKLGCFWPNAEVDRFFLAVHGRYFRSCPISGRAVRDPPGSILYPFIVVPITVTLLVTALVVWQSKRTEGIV
Method: Biological Activity cAMP Functional Assay
cAMP production following receptor activation was determined using the Homogeneous Time-Resolved Fluorescence (HTRF) cAMP dynamic-2 assay (Cisbio, France). The human neuroblastoma cell line SK-N-MC endogenously expressing the human CGRP receptor was seeded at a density of 12,500 cells/well in solid walled 96 well half area plates (Costar, Catalog Number 3688, Corning Life Sciences, Germany). After 16 h incubation at 37° C. media was removed and cells were incubated at 37° C. for 30 min in serum free media containing 500 μM IBMX (Tocris, Abingdon, UK, Catalog Number 2845) and increasing concentrations of test antagonist. Following this cells were challenged with an EC80 concentration of human CGRP (0.3 nM) for a further 30 min at 37° C. and then cAMP production was determined as manufacturer's instructions before plates were read on a PheraStar fluorescence plate reader (BMG LabTech, Germany). IC50 values were derived from the inhibition curve. The pIC50 values (where pIC50=−log 10 IC50) were converted to a functional pKb value using a modified Cheng-Prussoff equation where Kd=agonist EC50 and L hot=agonist challenge concentration. The pKb values of certain compounds of the invention are detailed in Table 4.

Kb [3]: 0.0126 nM
SMILES: Cc1cc(C[C@H]2NC(=O)c3cnc4c(c3)C[C@@]3(C4)C(=O)Nc4ncc(cc43)/C=C/COCCCCCN(C)C2=O)cc2cn[nH]c12 [Example 1-6, (1S,10R,20E)-12-methyl-10-[(7-methyl-1H-indazol-5-yl)methyl]-18-oxa-5,9,12,24,26-pentazapentacyclo[20.5.2.11,4.13,7.025,28]hentriaconta-3,5,7(30),20,22(29),23,25(28)-heptaene-8,11,27-trione]
ring closure, isolated yield ([1]; from CNCCCCCOC/C=C/c1cnc2c(c1)[C@@]1(Cc3cc(C(=O)N[C@H](Cc4cc(C)c5[nH]ncc5c4)C(=O)O)cnc3C1)C(=O)N2, 22-membered ring, HATU/DIEA, DMF, 3.7 mM, 0.03 h): 58.9%
ring closure, yield of all isomers ([2]; from CNCCCCCOC/C=C/c1cnc2c(c1)[C@@]1(Cc3cc(C(=O)N[C@H](Cc4cc(C)c5[nH]ncc5c4)C(=O)O)cnc3C1)C(=O)N2, HATU, DMF, 3.68 mM, 0.03 h): 58.9%

Kb [3]: 0.2 nM
SMILES: Cc1cc(C[C@H]2OC(=O)c3cnc4c(c3)C[C@@]3(C4)C(=O)Nc4ncc(cc43)/C=C/COCCOCCN(C)C2=O)cc2cn[nH]c12 [Example 4-1, (1S,10R,20E)-12-methyl-10-[(7-methyl-1H-indazol-5-yl)methyl]-9,15,18-trioxa-5,12,24,26-tetrazapentacyclo[20.5.2.11,4.13,7.025,28]hentriaconta-3,5,7(30),20,22(29),23,25(28)-heptaene-8,11,27-trione]
ring closure, isolated yield ([1]; from CNCCOCCOC/C=C/c1cnc2c(c1)[C@@]1(Cc3cc(C(=O)O[C@H](Cc4cc(C)c5[nH]ncc5c4)C(=O)O)cnc3C1)C(=O)N2, 22-membered ring, HATU/DIEA, DMA, 5.0 mM, 0.08 h): 62%
ring closure, yield of all isomers ([2]; from CNCCOCCOC/C=C/c1cnc2c(c1)[C@@]1(Cc3cc(C(=O)O[C@H](Cc4cc(C)c5[nH]ncc5c4)C(=O)O)cnc3C1)C(=O)N2, HATU, DMA, 5.0 mM, 0.08 h): 62%

Kb [3]: 0.501 nM
SMILES: Cc1cc(C[C@H]2NC(=O)N3CCC4(CC3)OC(=O)Nc3ncc(cc34)/C=C/COCCOCCN(C)C2=O)cc2cn[nH]c12 [Example 6-1, (7R,17E)-9-methyl-7-[(7-methyl-1H-indazol-5-yl)methyl]-12,15,25-trioxa-4,6,9,21,23-pentazatetracyclo[17.6.2.21,4.022,26]nonacosa-17,19(27),20,22(26)-tetraene-5,8,24-trione]
ring closure, isolated yield ([1]; from CNCCOCCOC/C=C/c1cnc2c(c1)C1(CCN(C(=O)N[C@H](Cc3cc(C)c4[nH]ncc4c3)C(=O)O)CC1)OC(=O)N2, 21-membered ring, PyAOP/DIEA, DMF, 3.1 mM, 25.0 °C, 0.5 h): 45%
ring closure, yield of all isomers ([2]; from CNCCOCCOC/C=C/c1cnc2c(c1)C1(CCN(C(=O)N[C@H](Cc3cc(C)c4[nH]ncc4c3)C(=O)O)CC1)OC(=O)N2, PyAOP, DMF, 3.08 mM, 25.0 °C, 0.5 h): 45%

Kb [3]: 1.26 nM
SMILES: Cc1cc(C[C@H]2OC(=O)N3CCC4(CC3)OC(=O)Nc3ncc(cc34)/C=C/COCCOCCN(C)C2=O)cc2cn[nH]c12 [Example 7-1, (7R,17E)-9-methyl-7-[(7-methyl-1H-indazol-5-yl)methyl]-6,12,15,25-tetraoxa-4,9,21,23-tetrazatetracyclo[17.6.2.21,4.022,26]nonacosa-17,19(27),20,22(26)-tetraene-5,8,24-trione]
ring closure, isolated yield ([1]; from CNCCOCCOC/C=C/c1cnc2c(c1)C1(CCN(C(=O)O[C@H](Cc3cc(C)c4[nH]ncc4c3)C(=O)O)CC1)OC(=O)N2, 21-membered ring, PyAOP/DIEA, DMF, 3.8 mM, 0.67 h): 50%
ring closure, yield of all isomers ([2]; from CNCCOCCOC/C=C/c1cnc2c(c1)C1(CCN(C(=O)O[C@H](Cc3cc(C)c4[nH]ncc4c3)C(=O)O)CC1)OC(=O)N2, PyAOP, DMF, 3.76 mM, 0.67 h): 50%
